Results published in patent US8461149B2, “Compounds useful as protein kinase inhibitors” (Vertex Pharmaceuticals Incorporated, priority 2007, dated 2013).
pKi: −log10 of the molar value. Read-outs that look alike come from different tables or passages of the source.

Molecular target: PLK1 (Homo sapiens, UniProt P53350)
Experiment: PLK1 inhibition assay (radioactive-phosphate incorporation)
Assay type: biochemical
Details: 25° C., read-out: Ki in the radioactive incorporation assay (Ki(app))
Description: The compounds of the present invention are evaluated as inhibitors of human PLK kinase using the following assays.
Compounds were screened for their ability to inhibit PLK1 using a radioactive-phosphate incorporation assay. Assays were carried out in a mixture of 25 mM HEPES (pH 7.5), 10 mM MgCl2, 0.1% BSA, and 2 mM DTT. Final substrate concentrations were 150 μM (350 μM for determining values of less than 1 nM) [γ-33P]ATP (115 mCi 33P ATP/mmol ATP, Amersham Pharmacia Biotech/Sigma Chemicals) and 300 μM (450 μM for determining values of <1 nM) peptide (KKKISDELMDATFADQEAK) (SEQ ID NO:1). Assays were carried out at 25° C. in the presence of 4 nM (1 nM for determining values of less than 1 nM) PLK1. An assay stock buffer solution was prepared containing all of the reagents listed above, with the exception of ATP and the test compound of interest. 30 μL of the stock solution was placed in a 96 well plate followed by addition of 2 μL of DMSO stock containing serial dilutions of the test compound (typically starting from a final concentration of 10 μM with 2-fold serial dilutions) in duplicate (final DMSO concentration 5%). The plate was pre-incubated for 10 minutes at 25° C. and the reaction initiated by addition of 8 μL [γ-33P]ATP (final concentration 150 μM (350 μM for determining values of less than 1 nM))).
The reaction was stopped after 90 minutes (240 minutes for determining values of less than 1 nM) by the addition of 100 μL 0.14M phosphoric acid. A multiscreen phosphocellulose filter 96-well plate (Millipore, Cat. No. MAPHN0B50) was pretreated with 100 μL 0.2M phosphoric acid prior to the addition of 125 μL of the stopped assay mixture. The plate was washed with 200 μL 0.2M phosphoric acid for 4 times. After drying, 100 μL Optiphase ‘SuperMix’ liquid scintillation cocktail (Perkin Elmer) was added to the well prior to scintillation counting (1450 Microbeta Liquid Scintillation Counter, Wallac).
After removing mean background values for all of the data points, Ki(app) data were calculated from non-linear regression analysis of the initial rate data using the Prism software package (GraphPad Prism version 3.0cx for Macintosh, GraphPad Software, San Diego Calif., USA).

[1] = conditions for values of less than 1 nM: 350 μM ATP, 450 μM peptide, 1 nM PLK1, 240 minutes
[2] = 150 μM ATP, 300 μM peptide, 4 nM PLK1, 90 minutes

Sequence of PLK1 (P53350 whole entry): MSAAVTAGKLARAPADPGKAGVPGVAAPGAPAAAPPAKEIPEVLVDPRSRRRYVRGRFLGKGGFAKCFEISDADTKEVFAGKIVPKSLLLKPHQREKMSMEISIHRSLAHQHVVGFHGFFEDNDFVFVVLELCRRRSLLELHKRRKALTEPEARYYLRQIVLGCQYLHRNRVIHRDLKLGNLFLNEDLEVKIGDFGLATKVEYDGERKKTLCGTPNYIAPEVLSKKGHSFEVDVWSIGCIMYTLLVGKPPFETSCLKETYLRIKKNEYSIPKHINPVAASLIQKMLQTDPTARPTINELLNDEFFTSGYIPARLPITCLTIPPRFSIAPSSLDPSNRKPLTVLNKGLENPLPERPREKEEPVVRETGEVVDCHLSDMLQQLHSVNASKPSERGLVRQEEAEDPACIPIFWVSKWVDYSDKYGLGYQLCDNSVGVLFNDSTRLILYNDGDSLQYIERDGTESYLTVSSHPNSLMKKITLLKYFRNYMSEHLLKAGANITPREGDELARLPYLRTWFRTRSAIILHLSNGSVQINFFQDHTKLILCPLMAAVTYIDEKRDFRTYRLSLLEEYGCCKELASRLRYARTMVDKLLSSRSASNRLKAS

Row | pKi [1] | pKi [2] | Compound
1 | > 9.00 |  | CC[C@@H]1C(=O)N(C)c2cnc(Nc3ccc(C(=O)NC4CC4)cc3OC)nc2N1[C@@H]1CCC(F)(F)C1 [Compound I-9, N-cyclopropyl-4-((R)-8-((R)-3,3-difluorocyclopentyl)-7-ethyl-5-methyl-6-oxo-5,6,7,8-tetrahydropteridin-2-ylamino)-3-methoxybenzamide]
2 |  | 8.00 to 9.00 | COc1cc(C(=O)NC2CC2)ccc1Nc1ncc2c(n1)N([C@@H]1CCC(F)(F)C1)CC1(CC1)C(=O)N2C [Compound I-4, (R)—N-cyclopropyl-4-(9′-(3,3-difluorocyclopentyl)-5′-methyl-6′-oxo-5′,6′,8′,9′-tetrahydrospiro[cyclopropane-1,7′-pyrimido[4,5-b][1,4]diazepine]-2′-ylamino)-3-methoxybenzamide]
3 | > 9.00 |  | CC[C@@H]1c2nncn2-c2cnc(Nc3ccc(C(=O)NC4CC4)cc3OC)nc2N1[C@@H]1CCC(F)(F)C1 [Compound I-7, N-cyclopropyl-4-((R)-5-((R)-3,3-difluorocyclopentyl)-4-ethyl-4,5-dihydro-[1,2,4]triazolo[4,3-f]pteridin-7-ylamino)-3-methoxybenzamide]
4 | > 9.00 |  | COc1cc(C(=O)N[C@@H]2CC[C@@H](F)C2)ccc1Nc1ncc2c(n1)N([C@@H]1CCC(F)(F)C1)CC(C)(C)C(=O)N2C [Compound I-2, 4-(9-((R)-3,3-difluorocyclopentyl)-5,7,7-trimethyl-6-oxo-6,7,8,9-tetrahydro-5H-pyrimido[4,5-b][1,4]diazepin-2-ylamino)-N-((1R,3R)-3-fluorocyclopentyl)-3-methoxybenzamide]
5 | > 9.00 |  | CCNC(=O)c1ccc(Nc2ncc3c(n2)N([C@@H]2CCC(F)(F)C2)[C@H](CC)c2nncn2-3)c(OC)c1 [Compound I-6, 4-((R)-5-((R)-3,3-difluorocyclopentyl)-4-ethyl-4,5-dihydro-[1,2,4]triazolo[4,3-f]pteridin-7-ylamino)-N-ethyl-3-methoxybenzamide]
6 | > 9.00 |  | COc1cc(C(=O)N[C@@H]2CCC(F)(F)C2)ccc1Nc1ncc2c(n1)N([C@@H]1CCC(F)(F)C1)CC(C)(C)C(=O)N2C [Compound I-3, N-((R)-3,3-difluorocyclopentyl)-4-(9-((R)-3,3-difluorocyclopentyl)-5,7,7-trimethyl-6-oxo-6,7,8,9-tetrahydro-5H-pyrimido[4,5-b][1,4]diazepin-2-ylamino)-3-methoxybenzamide]
7 |  | 8.00 to 9.00 | COc1cc(C(=O)N[C@@H]2CCC(F)(F)C2)ccc1Nc1ncc2c(n1)N([C@@H]1CCC(F)(F)C1)CC1(CC1)C(=O)N2C [Compound I-5, N-((R)-3,3-difluorocyclopentyl)-4-(9′-((R)-3,3-difluorocyclopentyl)-5′-methyl-6′-oxo-5′,6′,8′,9′-tetrahydrospiro[cyclopropane-1,7′-pyrimido[4,5-b][1,4]diazepine]-2′-ylamino)-3-methoxybenzamide]
8 | > 9.00 |  | CCNC(=O)c1ccc(Nc2ncc3c(n2)N([C@@H]2CCC(F)(F)C2)[C@H](CC)C(=O)N3C)c(OC)c1 [Compound I-8, 4-((R)-8-((R)-3,3-difluorocyclopentyl)-7-ethyl-5-methyl-6-oxo-5,6,7,8-tetrahydropteridin-2-ylamino)-N-ethyl-3-methoxybenzamide]
9 |  | 8.00 to 9.00 | COc1cc(C(=O)NC2CC2)ccc1Nc1ncc2c(n1)N([C@@H]1CCC(F)(F)C1)CC(C)(C)C(=O)N2C [Compound I-1, (R)—N-cyclopropyl-4-(9-(3,3-difluorocyclopentyl)-5,7,7-trimethyl-6-oxo-6,7,8,9-tetrahydro-5H-pyrimido[4,5-b][1,4]diazepin-2-ylamino)-3-methoxybenzamide]
